These results are taken from patent US20260285853A1, “COMPOUNDS AND METHODS FOR MODULATING SPLICING” (REMIX THERAPEUTICS INC., priority 2023, published 2026).

The term AC50 denotes the concentration giving half of the maximal activity seen. As a reminder, the IC50 is the midpoint of a concentration-inhibition curve. One may read the GI50 as the concentration that inhibits growth by half.

SMILES strings stand for the structures. Structures can show the parent of a compound that is named as a salt.

Common to all, as to type: cell-based
The subject of experiment [1] is HTT mRNA. Briefly: Splicing RT-qPCR assay (THP), Table 2A. Particulars: Table 2A (THP); for AC50: AJ mRNA increase, read-out: HTT AJ (increase in alternative junction mRNA, AC50); for IC50: CJ mRNA decrease, read-out: HTT CJ (decrease in canonical junction mRNA, IC50). (In general: In qPCR the cycle at which signal appears reflects the starting amount.)
In experiment [2] the test system is SH-SY5Y (human neuroblastoma) cells. Briefly: Cell viability, Cell Titer Glo 2.0 assay. Particulars: read-out: Viability SHSY5Y.3 GI50. An outline of the steps:
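SH-SY5Y cells were exposed to serially diluted compounds in IMDM with 10% FBS and 0.1% DMSO for 72 hours at 37° C., 5% CO2. Viability was measured by CellTiter-Glo 2.0 luminescence, with medium-only wells as blank.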
Background: In ATP-based viability assays light output follows the ATP content of the culture.

Experiment [3] has as its system MYB mRNA. Briefly: Splicing RT-qPCR assay (THP), Table 2A. To be noted: Table 2A (THP); for AC50: AJ mRNA increase, read-out: MYB AJ (increase in alternative junction mRNA, AC50); for IC50: CJ mRNA decrease, read-out: MYB CJ (decrease in canonical junction mRNA, IC50).
The subject of experiment [4] is HTT mRNA. The experiment in a line: Gene panel canonical junction qPCR assay, decrease in CJ mRNA, Table 3. To be noted: decrease in canonical junction (CJ) mRNA, gene panel qPCR, Table 3. An outline of the steps:
(§1)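 Canonical exon-junction (CJ) transcript measured by 5′ nuclease RT-qPCR, normalized to GAPDH, GUSB or PPIA and to DMSO control (2^(−ΔΔCt)). A673 or K562 cells treated 24 h at 37° C with an 11-point 3-fold dilution series, top 10 uM, DMSO ≤0.25%. IC50 from 4-parameter logistic fit of percentage CJ decrease.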

The test system of experiment [5] is MYB mRNA. The description is as above. Particulars: decrease in canonical junction (CJ) mRNA, gene panel qPCR, Table 3. Summed up: as §1

As to `CCNC1CCN(c2cc(F)c(C(=O)Nc3cn4cc(C#N)nc(C)c4n3)c3nn(C)cc23)CC1` [Compound 359, N-(6-cyano-8-methyl-imidazo-[1,2-a]pyrazin-2-yl)-4-[4-(ethylamino)-1-piperidyl]-6-fluoro-2-methyl-indazole-7-carboxamide], the AC50 in the experiment on HTT mRNA [1] and with MYB mRNA [3] was 100 to 1000 nM in each case. Further, the concentration for half-maximal inhibition (IC50) with HTT mRNA [1], with MYB mRNA [3], with HTT mRNA [4] and in the experiment with MYB mRNA [5] was 100 to 1000 nM each time. In addition, the GI50 in experiment [2] was in the range of 100 to 1000 nM.
On to `CCNC1CCN(c2ccc(C(=O)Nc3cc(-n4ccc(=O)cc4)c4nc(C)cn4c3)c3nn(C)cc23)CC1` [Compound 360, 4-(4-(ethylamino)piperidin-1-yl)-2-methyl-N-(2-methyl-8-(4-oxopyridin-1-(4H)-yl)imidazo[1,2-a]-pyridin-6-yl)-2H-indazole-7-carboxamide], for which the AC50 with HTT mRNA [1] and in the experiment with MYB mRNA [3] was 1000 to 10000 nM in each case. The half-inhibitory concentration (IC50) in the experiment on HTT mRNA [1], in the experiment with MYB mRNA [3], in the experiment on HTT mRNA [4] and in the experiment on MYB mRNA [5] was 1000 to 10000 nM throughout. Besides, in experiment [2], the GI50 was 1000 to 10000 nM.
With `Cc1cn2cc(NC(=O)c3ncc(N4CCC(NC5CC5)CC4)c4cn(C)nc34)cc(F)c2n1` [Compound 361, 4-[4-(cyclopropylamino)-1-piperidyl]-N-(8-fluoro-2-methyl-imidazo[1,2-a]pyridin-6-yl)-2-methyl-pyrazolo[3,4-c]pyridine-7-carboxamide], the AC50 lay within 1000 to 10000 nM in the experiment on HTT mRNA [1] and 100 to 1000 nM in the experiment with MYB mRNA [3]. Also, the IC50 was greater than 10000 nM in the experiment with HTT mRNA [1], 100 to 1000 nM in the experiment with MYB mRNA [3], greater than 10000 nM with HTT mRNA [4] and 100 to 1000 nM in the experiment on MYB mRNA [5]. Also, the GI50 in experiment [2] was in the range of 1000 to 10000 nM.
Turning to `CCNC1CCN(c2cc(F)c(C(=O)Nc3cn4cc(C)nc(CC)c4n3)c3nn(C)cc23)CC1` [Compound 362, 4-[4-(ethylamino)-1-piperidyl]-N-(8-ethyl-6-methyl-imidazo[1,2-a]pyrazin-2-yl)-6-fluoro-2-methyl-indazole-7-carboxamide], the values for the AC50 in the experiment with HTT mRNA [1] and in the experiment with MYB mRNA [3] were greater than 10000 nM and less than 100 nM, respectively. In addition, the IC50 in the experiment on HTT mRNA [1] is greater than 10000 nM; in the experiment on MYB mRNA [3], 100 to 1000 nM; in the experiment on HTT mRNA [4], greater than 10000 nM; with MYB mRNA [5] it was 100 to 1000 nM. In addition, the GI50 in experiment [2] was in the range of 1000 to 10000 nM.
Take `CCNC1CCN(c2ccc(C(=O)Nc3ccn(-c4ccncn4)n3)c3nn(C)cc23)CC1` [Compound 363, 4-(4-(ethylamino)-piperidin-1-yl)-2-methyl-N-(1-(pyrimidin-4-yl)-1H-pyrazol-3-yl)-2H-indazole-7-carboxamide 2,2,2-trifluoroacetate]: the AC50 in the experiment on HTT mRNA [1] and with MYB mRNA [3] was greater than 10000 nM in each case. Further, the IC50 in the experiment on HTT mRNA [1], in the experiment with MYB mRNA [3], in the experiment with HTT mRNA [4] and in the experiment with MYB mRNA [5] was greater than 10000 nM each time. The GI50 in experiment [2] is greater than 10000 nM.
`CCNC1CCN(c2cc(F)c(C(=O)Nc3cn4cc(C)nc4c(N)c3OC)c3nn(C)cc23)CC1` [Compound 364, N-(8-amino-7-methoxy-2-methyl-imidazo[1,2-a]-pyridin-6-yl)-4-[4-(ethylamino)-1-piperidyl]-6-fluoro-2-methyl-indazole-7-carboxamide]: the AC50 is 100 to 1000 nM in the experiment with HTT mRNA [1] and less than 100 nM in the experiment with MYB mRNA [3]. The half-maximal inhibitory concentration (IC50) with HTT mRNA [1] is 1000 to 10000 nM; in the experiment with MYB mRNA [3], 100 to 1000 nM; with HTT mRNA [4], 1000 to 10000 nM; with MYB mRNA [5] it was less than 100 nM. In experiment [2], the GI50 lay in the range of 1000 to 10000 nM.
As to `CCNC1CCN(c2ccc(C(=O)Nc3cc(Oc4ccccn4)c4nc(C)cn4c3)c3nn(C)cc23)CC1` [Compound 365, 4-[4-(ethylamino)-1-piperidyl]-2-methyl-N-[2-methyl-8-(2-pyridyloxy)-imidazo[1,2-a]pyridin-6-yl]indazole-7-carboxamide], the values for the half-maximal activity concentration (AC50) with HTT mRNA [1] and with MYB mRNA [3] were greater than 10000 nM and 1000 to 10000 nM, respectively. Further, the IC50 is greater than 10000 nM in the experiment with HTT mRNA [1], 1000 to 10000 nM with MYB mRNA [3], greater than 10000 nM with HTT mRNA [4] and 1000 to 10000 nM with MYB mRNA [5]. In addition, the GI50 in experiment [2] is greater than 10000 nM.
Take `CCNC1CCN(c2ccc(C(=O)Nc3cc(-n4ccccc4=O)c4nc(C)cn4c3)c3nn(C)cc23)CC1` [Compound 366, 4-[4-(ethylamino)-1-piperidyl]-2-methyl-N-[2-methyl-8-(2-oxo-1-pyridyl)imidazo[1,2-a]pyridin-6-yl]indazole-7-carboxamide]: the AC50 with HTT mRNA [1] and in the experiment with MYB mRNA [3] was greater than 10000 nM in each case. In addition, the IC50 with HTT mRNA [1], in the experiment on MYB mRNA [3], with HTT mRNA [4] and in the experiment with MYB mRNA [5] was greater than 10000 nM each time. Further, the GI50 in experiment [2] was greater than 10000 nM.
With `COc1c(NC(=O)c2c(F)cc(N3CC[C@H](NC4CC4)C4(CC4)C3)c3cn(C)nc23)cn2cc(C)nc2c1F` [Compound 367, 4-[(8S)-8-(cyclopropylamino)-5-azaspiro[2.5]octan-5-yl]-6-fluoro-N-(8-fluoro-7-methoxy-2-methyl-imidazo[1,2-a]pyridin-6-yl)-2-methyl-indazole-7-carboxamide], the half-maximal activity concentration (AC50) was 1000 to 10000 nM in the experiment with HTT mRNA [1] and less than 100 nM in the experiment on MYB mRNA [3]. Also, the IC50 with HTT mRNA [1] is 1000 to 10000 nM; in the experiment with MYB mRNA [3], less than 100 nM; in the experiment on HTT mRNA [4], 1000 to 10000 nM; with MYB mRNA [5], less than 100 nM. Further, the GI50 in experiment [2] was in the range of 100 to 1000 nM.
For `COc1c(NC(=O)c2c(F)cc(N3CC[C@@H](NC4CC4)C4(CC4)C3)c3cn(C)nc23)cn2cc(C)nc2c1F` [Compound 368, 4-[(8R)-8-(cyclopropylamino)-5-azaspiro[2.5]octan-5-yl]-6-fluoro-N-(8-fluoro-7-methoxy-2-methyl-imidazo[1,2-a]pyridin-6-yl)-2-methyl-indazole-7-carboxamide], the half-maximal activity concentration (AC50) in the experiment on HTT mRNA [1] is 1000 to 10000 nM; with MYB mRNA [3], less than 100 nM. The IC50 is 1000 to 10000 nM in the experiment with HTT mRNA [1], less than 100 nM with MYB mRNA [3], 1000 to 10000 nM in the experiment on HTT mRNA [4] and less than 100 nM in the experiment on MYB mRNA [5]. In addition, the concentration for 50% growth inhibition (GI50) in experiment [2] lay in the range of 100 to 1000 nM.
For the compound `COc1c(NC(=O)c2c(F)cc(N3CCC(NC4CC4)C4(CC4)C3)c3cn(C)nc23)cn2cc(C)nc2c1F` (stereo not drawn) [Compound 369, 4-[8-(cyclopropylamino)-5-azaspiro [2.5]octan-5-yl]-6-fluoro-N-(8-fluoro-7-methoxy-2-methyl-imidazo[1,2-a]-pyridin-6-yl)-2-methyl-indazole-7-carbox-amide], the AC50 in the experiment on HTT mRNA [1] is 100 to 1000 nM; in the experiment with MYB mRNA [3], less than 100 nM. For the same compound, the IC50 was 1000 to 10000 nM in the experiment with HTT mRNA [1], less than 100 nM in the experiment on MYB mRNA [3], 1000 to 10000 nM in the experiment on HTT mRNA [4] and less than 100 nM with MYB mRNA [5]. Moreover, the GI50 in experiment [2] fell in the range of 100 to 1000 nM.
With `Cc1cn2cc(NC(=O)c3ccc(N4CCC(N[C@@H]5C[C@H]5O)CC4)c4cn(C)nc34)cc(F)c2n1` [Compound 370, N-(8-fluoro-2-methylimidazo[1,2-a]pyridin-6-yl)-4-(4-(((1R,2R)-2-hydroxycyclopropyl)amino)piperidin-1-yl)-2-methyl-2H-indazole-7-carboxamide hydrochloride], the AC50 with HTT mRNA [1] is 1000 to 10000 nM; in the experiment with MYB mRNA [3] it was less than 100 nM. In addition, the IC50 in the experiment with HTT mRNA [1] lay within 1000 to 10000 nM; with MYB mRNA [3], 100 to 1000 nM; in the experiment on HTT mRNA [4], 1000 to 10000 nM; in the experiment on MYB mRNA [5], 100 to 1000 nM. In addition, the GI50 in experiment [2] is 1000 to 10000 nM.
